Measured values published in patent US20230270764A1, “COMPOSITION COMPRISING CANNABINOIDS, TERPENES, AND FLAVONOIDS FOR TREATING DEPRESSION” (priority 2020, published 2023).
pIC50: −log10 of the molar value.

Assays:
BV2 microglial cells [1] = assay: LPS-induced TNFα secretion by BV2 microglia cell cultures (ELISA); assay type: cell-based, murine; conditions: for effect on lipopolysaccharide-induced TNFα secretion: THC 0.1, 0.5 and 1 µM, CBDA 0.2, 1 and 2 µM, CBC 0.1, 1 and 2 µM, α-pinene, β-pinene, limonene 25 or 100 µM; for pIC50: Mus musculus, BV-2, read-out: IC50 for inhibiting LPS-induced TNFα release; for levels of TNFα compared to cultures treated with vehicle and LPS: 24-hours incubation, CBD 10 but not 1 µM, linalool 100 but not 25 µM, kaempferol dose-dependently at 10, 25 and 50 µM, quercetin 10 and 25 but not 5 µM
Procedure: (§1) The BV2 murine microglial cell line is used in these studies.
(§2) The BV2 cells are cultured at 37° C. in a humidified atmosphere with 5% CO2 in high D-glucose (4.5 g/L) Dulbecco’s modified Eagle’s medium (Sigma, Rehovot, Israel) supplemented with 5% heat-inactivated fetal bovine serum, streptomycin (100 µg/ml), and penicillin (100 units/ml) and sodium pyruvate (1 mM; all from Biological Industries Ltd., Kibbutz Beit Haemek, Israel). 24 hours before experiments with LPS stimulation, the BV2 cells are split into 24 well plates, 2×10^5 cells per well, covered with 1 ml of growth medium and allowed to attach overnight. 24 hr before experiments with α-synuclein, the BV2 cells are split into 96-well plates, 50,000 (5×10^4) cells per well, covered with 200 µl of growth medium and allowed to attach overnight. Cultures of BV2 microglia cells are first treated by an individual cannabinoid, or terpene or flavonoid selected from: Cannabidiol (CBD), Δ-9-tetrahydrocannabinol (THC), Δ-8-tetrahydrocannabinol (THC), cannabigerol (CBG), cannabichromene (CBC), cannabigerolic acid (CBGA), Cannabidiolic acid (CBDA), THC acid (THCA), cannabichromenic Acid (CBCA), Cannabidivarin (CBDV), tetrahydrocannabivarin (THCV), Cannabichromevarin (CBCV), Cannabichromerocin ([…]), Cannabivarin (CBV), Cannabicitran (CBT), Cannabinol (CBN), Cannabicyclol (CBL), Cannabigerorcin (CBGO), Cannabinodiol (CBND), β-caryophyllene, β-elemene, β-myrcene, linalool, α-pinene, β-pinene, eucalyptol, alpha-terpineol, valencene, geraniol (lemonol), bisabolol, nerolidol, ocimene, terpinolene, humulene, α-terpinene, camphene, fenchol, α-phellandrene, Δ3-carene, γ-cardinene, sabinene, limonene, β-amyrin, cycloartenol, cannflavin A, cannflavin B, kaempferol, quercetin, luteolin, apigenin, canniprene, orientin, β-sitosterol, vitexin, isovitexin, and chrysin. Additional cultures of BV2 microglia cells are treated by an individual cannabinoid, with at least one additional cannabinoid, and/or terpene, and/or flavonoid, and/or celecoxib. Additional cultures are exposed to the vehicle of these compounds (cremophor, ethanol and PBS, 1:1:18 (v/v/v)) (FIG. 2A). In some studies, cultures of BV2 microglia cells are treated by a specific whole plant cannabis extract, with or without supplementation with cannabinoid(s), and/or terpene(s) and/or flavonoid(s), and/or celecoxib (FIG. 2B).
For each individual cannabinoid mentioned above, 3-4 concentrations are used, ranging from 0.1 to 10 µM. For ultra-low dose Δ9-THC the concentration used is 0.01 µM. […] For celecoxib, 3-4 concentrations are used, ranging from 0.1 to 10 µM. Two hours following the treatment, the cultures are exposed to one of the following microglia stimulators: LPS (Sigma L2630; Escherichia coli serotype O111:B4) is dissolved in D-PBS (Sigma, D8537) to a pre-stock concentration of 1 mg/ml, aliquoted and stored at -80° C. Stock solution of LPS at 10 ug/ml is prepared using sterile D-PBS, followed by filtering via 0.22 µm filter membrane, aliquoting and storing in -20° C. LPS is applied into the cell medium at a final concentration of 100 ng/ml. Poly I:C (Sigma, P1530) was first dissolved in sterile, molecular grade water to the concentration of 10 mg/ml (following the manufacturer’s instructions). This stock solution was further diluted to the concentration of 1 mg/ml in sterile PBS, and the aliquots stored in -20 °C.

BV2 microglial cells [2] = assay: LPS-induced IL-6 release by BV2 microglia cell cultures (ELISA); assay type: cell-based, murine
Procedure: as §1, §2
(§3) For each individual cannabinoid mentioned above, 3-4 concentrations are used, ranging from 0.1 to 10 µM. For ultra-low dose Δ9-THC the concentration used is 0.01 µM. For each individual terpene or flavonoid mentioned above, 3-4 concentrations are used, ranging from 1 to 50 µM. For celecoxib, 3-4 concentrations are used, ranging from 0.1 to 10 µM. Two hours following the treatment, the cultures are exposed to one of the following microglia stimulators: LPS (Sigma L2630; Escherichia coli serotype O111:B4) is dissolved in D-PBS (Sigma, D8537) to a pre-stock concentration of 1 mg/ml, aliquoted and stored at -80° C. Stock solution of LPS at 10 ug/ml is prepared using sterile D-PBS, followed by filtering via 0.22 µm filter membrane, aliquoting and storing in -20° C. LPS is applied into the cell medium at a final concentration of 100 ng/ml. Poly I:C (Sigma, P1530) was first dissolved in sterile, molecular grade water to the concentration of 10 mg/ml (following the manufacturer’s instructions). This stock solution was further diluted to the concentration of 1 mg/ml in sterile PBS, and the aliquots stored in -20 °C.

LPS-injected mice = assay: Body weight change and food consumption in the LPS-induced model of depression; assay type: in vivo; conditions: Example 9; male C57BL/6, i.p. 1 h before LPS 330 µg/kg; mg/kg: CBD 30; CBD 30 plus THC 10; cannabinol 10; CBD 30 plus BCP 50
Description: Animals were housed 2-3/cage, kept in an air-conditioned room (23+°C) and given ad libitum access to food and water. The mice were kept in a reversed light/dark cycle, with lights off from 7 a.m. to 7 p.m. All experiments were approved by the Hebrew University of Jerusalem Ethics Committee on Animal Care and Use. In preparation for the Sucrose Preference Test, mice were habituated 2-3 times to sucrose drinking, by exposing them overnight to two graduated tubes, one containing water and the other containing sucrose solution (1%, w/v). Water and sucrose consumption were measured, and sucrose preference was computed by dividing the amount of sucrose consumed by drinking (ml sucrose) by the total drinking volume (ml of sucrose + water). One day later, the weight of the mice and the food in their cages was weighed for later analysis of food consumption and body weight changes. Groups of mice were injected intraperitoneally (i.p.) with either vehicle (cremophor, ethanol and PBS, 1:1:18 (v/v/v)) or a cannabinoid-based formulation (by itself or with another cannabinoid, or a terpene or a flavonoid). One hour later, each of these groups was injected with LPS (330 µg/kg). All injections were administered at a dose of 10 ml/kg. Four hours following the LPS injection, mice were tested in the Open-Field Test. In this test, the measured locomotor activity reflects not only motor capacity, but particularly the innate motivation for spatial exploration (which increases the distance travelled) and the anxiety level (which reduces the distance travelled, in general, and particularly the distance and time spent in the center of the open field). Each subject was placed near one of the walls of a white 50 X 50 cm^2 arena with 40 cm high walls. The distance travelled (cm), the velocity of the movement (cm/second), the time spent (seconds), distance travelled (cm) in the center area of the arena, as well as the number of entries from the perimeter area into the center of the arena were automatically measured over a 4-minute period, using EthoVision XT video tracking system and software (Noldus, The Netherlands). Twenty-four hours after the LPS injection, mice were tested in the Social Exploration Test. In this test, the subject was placed in an observation cage containing a small metal wire mesh cage with a conspecific mouse inside it. Social exploration, defined as the time of near contact between the nose of the subject and the juvenile in the small cage was recorded for 4 min, using computerized in-house software. Sucrose preference was assessed, as described above, between 8 to 27 hr post LPS injection. Body weight and weight of the food were measured two hours before the LPS injection, and again after 24 hours, and the change in body weight and food consumption were calculated.
This particular study was conducted in several experimental cohorts, and not all compounds and all measures were studied in all cohort. However, each cohort included a vehicle-treated group; therefore, the scores in each behavioral test were converted to % of mean vehicle-treated group in every individual cohort/experiment. Statistical comparisons were computed using SPSS software and consisted of one-way analyses of variance (ANOVA), followed by post-hoc comparisons with the Student-Newman-Keuls method.

BV2 microglial cells [3] = assay: α-synuclein-induced TNFα secretion by BV2 microglia cell cultures; assay type: cell-based, murine; conditions: Mus musculus
Procedure: as §2
as §3, with “°C. […] To induce oligomerization, α-Synuclein solution is placed for 24 hours on a shaker with agitation of 80 rpm and at 37° C.” for “°C.”

BV2 microglial cells [4] = assay: LPS-induced IL-1β release by BV2 microglia cell cultures (ELISA); assay type: cell-based, murine
Procedure: as §1, §2, §3

Q: For `CCCCCc1cc(O)c2c(c1)OC(C)(CCC=C(C)C)C=C2` (stereo not shown) [CBC, cannabichromene], which “effect on lipopolysaccharide-induced TNFα secretion” value (“effect” for short) (BV2 microglial cells [1]) is on record?
A: no effect

Q: Which “IL-6 secretion vs Veh plus LPS” value (BV2 microglial cells [2]; Example 6, CBD or CBDV given by themselves) does the source give for `C=C(C)[C@@H]1CCC(C)=C[C@H]1c1c(O)cc(CCC)cc1O` [CBDV, cannabidivarin] here?
A: no significant effect

Q: What about the “times less potent than CBD in inhibiting IL-6 release” value (BV2 microglial cells [2]; Example 6, IC50 comparison) of the same compound?
A: about 2 times

Q: And the pIC50 (BV2 microglial cells [2]; Mus musculus, BV-2, Example 6 (FIG. 7D), by itself, read-out: IC50 for inhibiting LPS-induced IL-6 release)?
A: 5.02

Q: And the “times less potent than CBD in inhibiting TNFα release” value (BV2 microglial cells [1]; Example 6, IC50 comparison)?
A: ~6 times

Q: What about the “release of TNFα vs LPS-activated cultures treated with vehicle” value (BV2 microglial cells [1]; Example 6, by itself, CBD 1, 2.5 and 5 µM, CBDV 1, 2.5, 5 and 10 µM) of the same compound?
A: no concentration of either CBD or CBDV by itself affected release of TNFα

Q: And the pIC50 (BV2 microglial cells [1])?
A: 4.55

Q: How did the “effect” value (BV2 microglial cells [1]) turn out when `CCCCCc1cc(O)c2c(c1)OC(C)(C)[C@@H]1CCC(C)=C[C@@H]21` [THC, Δ-9 tetrahydrocannabinol] was run?
A: no effect

Q: For `CCCCCc1cc(O)c2c(c1)OC(C)(C)c1ccc(C)cc1-2` [cannabinol], which “food consumption over 24 hr vs vehicle-treated group” value (LPS-injected mice) is on record?
A: consumed significantly less food

Q: Which results are given for `Cc1ccc(-c2cc(C(F)(F)F)nn2-c2ccc(S(N)(=O)=O)cc2)cc1` [celecoxib]?
A: pIC50 (BV2 microglial cells [3]; BV-2, Example 8 (FIG. 9B), by itself, read-out: IC50, α-synuclein-induced TNFα release): 5.38; pIC50 (BV2 microglial cells [3]; BV-2, addition of 1 µM CBD, read-out: celecoxib IC50, α-synuclein-induced TNFα release): 5.70; pIC50 (BV2 microglial cells [3]; BV-2, addition of 2.5 µM CBD, read-out: celecoxib IC50, α-synuclein-induced TNFα release): 5.77; pIC50 (BV2 microglial cells [3]; BV-2, addition of 5 µM CBD, read-out: celecoxib IC50, α-synuclein-induced TNFα release): 5.96

Q: Which “effect” value (BV2 microglial cells [1]) does the source give for `C=C(C)[C@H]1CC=C(C)CC1` [limonene] here?
A: no effects

Q: How did the “levels of TNFα compared to cultures treated with vehicle and LPS” value (BV2 microglial cells [1]) turn out when `C=CC(C)(O)CCC=C(C)C` (stereo not shown) [linalool] was run?
A: reduced

Q: With `O=c1c(O)c(-c2ccc(O)c(O)c2)oc2cc(O)cc(O)c12` [quercetin] as the compound, how does the “IL-1β release vs Veh plus LPS” value (BV2 microglial cells [4]; Example 5, alone at 5 µM, no effect at 1 and 2.5 µM) read?
A: significantly decreased IL-1β levels

Q: And the pIC50 (BV2 microglial cells [4]; Mus musculus, BV-2, Example 5 (FIG. 6D), by itself, read-out: IC50 for inhibiting LPS-induced IL-1β release)?
A: 5.59

Q: What about the “levels of TNFα compared to cultures treated with vehicle and LPS” value (BV2 microglial cells [1]) of the same compound?
A: reduced

Q: And the “release of TNFα vs LPS-activated cultures treated with vehicle” value (BV2 microglial cells [1]; Example 5, by themselves, CBD 1 and 2.5 µM, quercetin 1, 2.5 and 5 µM)?
A: did not affect

Q: And the pIC50 (BV2 microglial cells [1])?
A: 5.21

Q: With `CC1=CCC2CC1C2(C)C` (stereo not drawn) [α-pinene] as the compound, how does the “effect” value (BV2 microglial cells [1]) read?
A: no effects

Q: Which “effect” value (BV2 microglial cells [1]) does the source give for `C=C1CCC2CC1C2(C)C` (stereo not drawn) [β-pinene] here?
A: no effects
